# Data reported in patent US20150010928A1, “MEANS AND METHODS FOR ASSESSING AN ENDOCRINE DISEASE OR DISORDER” (priority 2012, published 2015).
# Marks after values point to notes of the source that are not given here.
# Tested on: male rats
# Assay: Plasma metabolite profiling (GC-MS, LC-MS, SPE-LC-MS) in male rats dosed once daily over 28 days (OECD 407)
# Type: in vivo, rat
# Details: high dose; for Mannose: Table 15c
# Method in brief: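 Polar and lipid fractions profiled by GC-MS and LC-MS/MRM, steroids by online SPE-LC-MS; pool-normalized data compared to controls by Welch test as treatment ratios and p-values.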
smiles,measurement,setting,value
C[C@]12C=CC3=C4CCC(=O)C=C4CCC3C1CC[C@@H]2O (stereo partly drawn) [Trenbolone],Mannose,"m7, male rats",1.35 *
same,"3,4-Dihydroxyphenylacetic acid (DOPAC)","m7, male rats, Table 16",1.08
same,"3,4-Dihydroxyphenylglycol (DOPEG)","m7, male rats, Table 16",1.12
same,Androstenedione,"m7, male rats, Table 16",0.09 *
same,Citrate,"m7, male rats, Table 16",0.89 *
same,"Glycerol, polar fraction","m7, male rats, Table 16",0.66 *
same,Histamine,"m7, male rats, Table 16",1.35
same,Ketoleucine,"m7, male rats, Table 16",0.93
same,Lactate,"m7, male rats, Table 16",0.68 *
same,Metanephrine,"m7, male rats, Table 16",0.86
same,Pantothenic acid,"m7, male rats, Table 16",0.65 *
same,"Phosphatidylcholine (C18:1,C18:2)","m7, male rats, Table 16",0.76 *
same,Phosphatidylcholine No 04,"m7, male rats, Table 16",0.44 *
same,"TAG (C18:1,C18:2)","m7, male rats, Table 16",0.77 *
same,Testosterone,"m7, male rats, Table 16",0.1 *
same,Tyrosine,"m7, male rats, Table 16",0.93 *
same,"3,4-Dihydroxyphenylacetic acid (DOPAC)","m7, male rats, Table 15d",1.08
same,18-Hydroxy-11-deoxycorticosterone,"m7, male rats, Table 15d",0.4
same,"Glycerol phosphate, lipid fraction","m7, male rats, Table 15d",0.26 *
same,Homovanillic acid (HVA),"m7, male rats, Table 15d",0.6 *
same,Kynurenic acid,"m7, male rats, Table 15d",0.66 *
same,Lysophosphatidylcholine (C18:1),"m7, male rats, Table 15d",0.89 *
same,Lysophosphatidylethanolamine (C22:5),"m7, male rats, Table 15d",0.75 *
same,"Phosphate, lipid fraction","m7, male rats, Table 15d",0.47 *
same,"Phosphatidylcholine (C18:0,C18:1)","m7, male rats, Table 15d",0.62 *
same,"Sphingomyelin (d18:1, C16:0)","m7, male rats, Table 15d",0.23 *
same,"Sphingomyelin (d18:1,C23:0)","m7, male rats, Table 15d",0.25 *
same,"Sphingomyelin (d18:1,C24:0)","m7, male rats, Table 15d",0.37 *
same,"Sphingomyelin (d18:2,C18:0)","m7, male rats, Table 15d",0.24 *
same,TAG No 02,"m7, male rats, Table 15d",0.57 *
same,"myo-Inositol, lipid fraction","m7, male rats, Table 15d",0.24 *
same,Cholesterol,"m7, Table 14b",0.22
same,Choline plasmalogen No 02,"m7, Table 14b",0.44
same,Lignoceric acid (C24:0),"m7, Table 14b",0.14
same,"Sphingomyelin (d18:1, C16:0)","m7, Table 14b",0.23
same,"Sphingomyelin (d18:2, C16:0)","m7, Table 14b",0.22
same,erythro-Sphingosine (d18:1),"m7, Table 14b",0.1
same,Mannose,"m14, male rats",1.4 *
same,"3,4-Dihydroxyphenylacetic acid (DOPAC)","m14, male rats, Table 16",0.75 *
same,"3,4-Dihydroxyphenylglycol (DOPEG)","m14, male rats, Table 16",0.86 *
same,Androstenedione,"m14, male rats, Table 16",0.02 *
same,Citrate,"m14, male rats, Table 16",0.89 *
same,"Glycerol, polar fraction","m14, male rats, Table 16",0.51 *
same,Histamine,"m14, male rats, Table 16",1.6
same,Ketoleucine,"m14, male rats, Table 16",0.85 *
same,Lactate,"m14, male rats, Table 16",0.94
same,Metanephrine,"m14, male rats, Table 16",0.48 *
same,Pantothenic acid,"m14, male rats, Table 16",0.82 *
same,"Phosphatidylcholine (C18:1,C18:2)","m14, male rats, Table 16",0.74 *
same,Phosphatidylcholine No 04,"m14, male rats, Table 16",0.42 *
same,"TAG (C18:1,C18:2)","m14, male rats, Table 16",0.45 *
same,Testosterone,"m14, male rats, Table 16",0.06 *
same,Tyrosine,"m14, male rats, Table 16",1
same,"3,4-Dihydroxyphenylacetic acid (DOPAC)","m14, male rats, Table 15d",0.75 *
same,18-Hydroxy-11-deoxycorticosterone,"m14, male rats, Table 15d",0.47 *
same,"Glycerol phosphate, lipid fraction","m14, male rats, Table 15d",0.24 *
same,Homovanillic acid (HVA),"m14, male rats, Table 15d",0.5 *
same,Kynurenic acid,"m14, male rats, Table 15d",0.8 *
same,Lysophosphatidylcholine (C18:1),"m14, male rats, Table 15d",0.82 *
same,Lysophosphatidylethanolamine (C22:5),"m14, male rats, Table 15d",0.83 *
same,"Phosphate, lipid fraction","m14, male rats, Table 15d",0.44 *
same,"Phosphatidylcholine (C18:0,C18:1)","m14, male rats, Table 15d",0.63 *
same,"Sphingomyelin (d18:1, C16:0)","m14, male rats, Table 15d",0.22 *
same,"Sphingomyelin (d18:1,C23:0)","m14, male rats, Table 15d",0.33 *
same,"Sphingomyelin (d18:1,C24:0)","m14, male rats, Table 15d",0.41 *
same,"Sphingomyelin (d18:2,C18:0)","m14, male rats, Table 15d",0.26 *
same,TAG No 02,"m14, male rats, Table 15d",0.74 *
same,"myo-Inositol, lipid fraction","m14, male rats, Table 15d",0.29 *
same,Cholesterol,"m14, Table 14b",0.22
same,Choline plasmalogen No 02,"m14, Table 14b",0.52
same,Lignoceric acid (C24:0),"m14, Table 14b",0.17
same,"Sphingomyelin (d18:1, C16:0)","m14, Table 14b",0.22
same,"Sphingomyelin (d18:2, C16:0)","m14, Table 14b",0.18
same,erythro-Sphingosine (d18:1),"m14, Table 14b",0.06
same,Mannose,"m28, male rats",1.31 *
same,"3,4-Dihydroxyphenylacetic acid (DOPAC)","m28, male rats, Table 16",0.54 *
same,"3,4-Dihydroxyphenylglycol (DOPEG)","m28, male rats, Table 16",0.72 *
same,Androstenedione,"m28, male rats, Table 16",0.02 *
same,Citrate,"m28, male rats, Table 16",1.03
same,"Glycerol, polar fraction","m28, male rats, Table 16",0.61 *
same,Histamine,"m28, male rats, Table 16",0.65 *
same,Ketoleucine,"m28, male rats, Table 16",0.72 *
same,Lactate,"m28, male rats, Table 16",0.76 *
same,Metanephrine,"m28, male rats, Table 16",0.66 *
same,Pantothenic acid,"m28, male rats, Table 16",0.77 *
same,"Phosphatidylcholine (C18:1,C18:2)","m28, male rats, Table 16",0.96
same,Phosphatidylcholine No 04,"m28, male rats, Table 16",0.81 *
same,"TAG (C18:1,C18:2)","m28, male rats, Table 16",1.26
same,Testosterone,"m28, male rats, Table 16",0.06 *
same,Tyrosine,"m28, male rats, Table 16",0.82 *
same,"3,4-Dihydroxyphenylacetic acid (DOPAC)","m28, male rats, Table 15d",0.54 *
same,18-Hydroxy-11-deoxycorticosterone,"m28, male rats, Table 15d",0.52 *
same,"Glycerol phosphate, lipid fraction","m28, male rats, Table 15d",0.61 *
same,Homovanillic acid (HVA),"m28, male rats, Table 15d",0.49 *
same,Kynurenic acid,"m28, male rats, Table 15d",0.72 *
same,Lysophosphatidylcholine (C18:1),"m28, male rats, Table 15d",0.92
same,Lysophosphatidylethanolamine (C22:5),"m28, male rats, Table 15d",0.8
same,"Phosphate, lipid fraction","m28, male rats, Table 15d",0.66 *
same,"Phosphatidylcholine (C18:0,C18:1)","m28, male rats, Table 15d",0.87
same,"Sphingomyelin (d18:1, C16:0)","m28, male rats, Table 15d",0.35 *
same,"Sphingomyelin (d18:1,C23:0)","m28, male rats, Table 15d",0.55 *
same,"Sphingomyelin (d18:1,C24:0)","m28, male rats, Table 15d",0.54 *
same,"Sphingomyelin (d18:2,C18:0)","m28, male rats, Table 15d",0.35 *
same,TAG No 02,"m28, male rats, Table 15d",0.51 *
same,"myo-Inositol, lipid fraction","m28, male rats, Table 15d",0.54 *
same,Cholesterol,"m28, Table 14b",0.4
same,Choline plasmalogen No 02,"m28, Table 14b",0.55
same,Lignoceric acid (C24:0),"m28, Table 14b",0.35
same,"Sphingomyelin (d18:1, C16:0)","m28, Table 14b",0.35
same,"Sphingomyelin (d18:2, C16:0)","m28, Table 14b",0.28
same,erythro-Sphingosine (d18:1),"m28, Table 14b",0.21
